Assay results: ChEMBL document CHEMBL5236603, “Discovery of mobocertinib, a potent, oral inhibitor of EGFR exon 20 insertion mutations in non-small cell lung cancer” (Bioorg Med Chem Lett, 2023)

Assays:
[1] = biological target: T1, Epidermal growth factor receptor (Homo sapiens, UniProt P00533); test: Inhibition of human EGFR at 1 uM by hotspot assay relative to control
[2] = biological target: Receptor tyrosine-protein kinase erbB-4 (Homo sapiens) (UniProt Q15303); test: Inhibition of human HER4 at 1 uM by hotspot assay relative to control
[3] = biological target: Tyrosine-protein kinase BTK (Homo sapiens) (UniProt Q06187); test: Inhibition of human BTK at 1 uM by hotspot assay relative to control
[4] = Inhibition of mouse EGFR S768_D770dup D770_N771insSVD (SVD) mutant stably expressed in mouse BaF3 cells assessed as cell viability incubated for 3 days by Cell Titer-Glo assay; type: cell-based; conditions: BaF3, 72 h
[5] = Cmax in CD-1 mouse at 10 mg/kg, po by LC/MS/MS analysis; type: ADME, organism-based; parameters: dose 10 mg/kg, route po; conditions: in vivo
[6] = biological target: Epidermal growth factor receptor (Homo sapiens, UniProt P04626+P00533+Q15303+P21860, L858R); test: Inhibition of mouse EGFR L858R mutant stably expressed in mouse BaF3 cells assessed as cell viability incubated for 3 days by Cell Titer-Glo assay; type: cell-based
BaF3 = test: In vivo antitumor activity against mouse BaF3 cells expressing EGFR exon 20 insertion (ex20ins) ASV implanted in SCID mouse assessed as tumor growth inhibition at 100 mg/kg, po administered for 7 consecutive days; type: functional; conditions: BaF3, 168 h, time 7 day, read-out: TGI
[7] = biological target: T2, Tyrosine-protein kinase JAK3 (Homo sapiens) (UniProt P52333); test: Inhibition of human JAK3 at 1 uM by hotspot assay relative to control
T2 sequence (whole entry): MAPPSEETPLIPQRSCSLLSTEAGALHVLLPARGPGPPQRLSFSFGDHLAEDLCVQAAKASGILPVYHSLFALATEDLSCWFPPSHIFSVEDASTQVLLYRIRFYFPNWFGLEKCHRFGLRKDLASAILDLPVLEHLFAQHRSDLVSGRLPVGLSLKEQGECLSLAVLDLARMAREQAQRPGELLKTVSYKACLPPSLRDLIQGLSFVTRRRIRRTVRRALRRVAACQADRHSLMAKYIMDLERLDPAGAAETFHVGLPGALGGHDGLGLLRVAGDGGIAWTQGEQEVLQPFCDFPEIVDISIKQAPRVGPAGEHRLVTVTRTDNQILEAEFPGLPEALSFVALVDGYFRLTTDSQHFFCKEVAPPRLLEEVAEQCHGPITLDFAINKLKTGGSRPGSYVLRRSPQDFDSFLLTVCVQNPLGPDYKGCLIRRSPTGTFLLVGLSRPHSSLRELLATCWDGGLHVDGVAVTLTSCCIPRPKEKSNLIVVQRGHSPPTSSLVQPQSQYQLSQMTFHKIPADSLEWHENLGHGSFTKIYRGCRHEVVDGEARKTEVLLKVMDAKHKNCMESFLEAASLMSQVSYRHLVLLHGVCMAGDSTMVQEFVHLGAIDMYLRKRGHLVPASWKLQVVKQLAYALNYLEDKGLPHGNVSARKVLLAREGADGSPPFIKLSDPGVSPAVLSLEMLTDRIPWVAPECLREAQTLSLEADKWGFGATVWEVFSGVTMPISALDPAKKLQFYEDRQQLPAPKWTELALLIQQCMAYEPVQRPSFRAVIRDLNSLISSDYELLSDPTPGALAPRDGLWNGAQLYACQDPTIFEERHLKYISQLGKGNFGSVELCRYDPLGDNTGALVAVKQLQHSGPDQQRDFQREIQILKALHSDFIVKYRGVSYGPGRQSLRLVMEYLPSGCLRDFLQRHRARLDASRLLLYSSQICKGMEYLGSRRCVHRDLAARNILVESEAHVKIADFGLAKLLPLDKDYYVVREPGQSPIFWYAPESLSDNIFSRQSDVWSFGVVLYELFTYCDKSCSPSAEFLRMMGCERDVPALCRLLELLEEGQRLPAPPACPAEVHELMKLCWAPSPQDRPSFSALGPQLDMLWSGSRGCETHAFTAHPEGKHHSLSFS

[8] = biological target: T1, Epidermal growth factor receptor; test: Inhibition of […]-induced EGFR phosphorylation in human A549 cells pretreated for 2 hrs followed by EGF stimulation by immune assay; type: cell-based
[9] = biological target: T3, Cytoplasmic tyrosine-protein kinase BMX (Homo sapiens) (UniProt P51813); test: Inhibition of human BMX at 1 uM by hotspot assay relative to control
T3 sequence (whole entry): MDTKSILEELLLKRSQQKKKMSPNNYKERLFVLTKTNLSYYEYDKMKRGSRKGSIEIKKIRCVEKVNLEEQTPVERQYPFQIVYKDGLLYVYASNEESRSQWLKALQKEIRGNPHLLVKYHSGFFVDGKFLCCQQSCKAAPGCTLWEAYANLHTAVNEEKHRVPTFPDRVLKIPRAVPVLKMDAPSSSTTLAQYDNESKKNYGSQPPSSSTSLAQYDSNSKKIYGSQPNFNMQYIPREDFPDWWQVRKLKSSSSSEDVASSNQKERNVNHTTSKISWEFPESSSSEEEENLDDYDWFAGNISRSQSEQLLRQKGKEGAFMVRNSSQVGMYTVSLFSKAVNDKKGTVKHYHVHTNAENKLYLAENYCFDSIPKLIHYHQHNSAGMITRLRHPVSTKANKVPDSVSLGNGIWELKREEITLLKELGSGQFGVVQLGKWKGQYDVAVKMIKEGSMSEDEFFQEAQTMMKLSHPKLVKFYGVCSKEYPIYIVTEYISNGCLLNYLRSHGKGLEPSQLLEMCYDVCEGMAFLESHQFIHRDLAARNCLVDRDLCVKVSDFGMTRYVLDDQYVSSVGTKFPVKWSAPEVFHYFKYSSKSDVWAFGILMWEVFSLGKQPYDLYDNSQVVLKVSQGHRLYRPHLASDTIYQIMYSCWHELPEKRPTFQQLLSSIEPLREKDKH

[10] = Inhibition of mouse EGFR A767_V769dup V769_D770insASV (ASV) mutant stably expressed in mouse BaF3 cells assessed as cell viability incubated for 3 days by Cell Titer-Glo assay; type: cell-based; conditions: BaF3, 72 h
[11] = Cmax in CD-1 rat at 10 mg/kg, po by LC/MS/MS analysis; type: ADME, organism-based; parameters: dose 10 mg/kg, route po; conditions: in vivo

T1 sequence (P00533 whole entry): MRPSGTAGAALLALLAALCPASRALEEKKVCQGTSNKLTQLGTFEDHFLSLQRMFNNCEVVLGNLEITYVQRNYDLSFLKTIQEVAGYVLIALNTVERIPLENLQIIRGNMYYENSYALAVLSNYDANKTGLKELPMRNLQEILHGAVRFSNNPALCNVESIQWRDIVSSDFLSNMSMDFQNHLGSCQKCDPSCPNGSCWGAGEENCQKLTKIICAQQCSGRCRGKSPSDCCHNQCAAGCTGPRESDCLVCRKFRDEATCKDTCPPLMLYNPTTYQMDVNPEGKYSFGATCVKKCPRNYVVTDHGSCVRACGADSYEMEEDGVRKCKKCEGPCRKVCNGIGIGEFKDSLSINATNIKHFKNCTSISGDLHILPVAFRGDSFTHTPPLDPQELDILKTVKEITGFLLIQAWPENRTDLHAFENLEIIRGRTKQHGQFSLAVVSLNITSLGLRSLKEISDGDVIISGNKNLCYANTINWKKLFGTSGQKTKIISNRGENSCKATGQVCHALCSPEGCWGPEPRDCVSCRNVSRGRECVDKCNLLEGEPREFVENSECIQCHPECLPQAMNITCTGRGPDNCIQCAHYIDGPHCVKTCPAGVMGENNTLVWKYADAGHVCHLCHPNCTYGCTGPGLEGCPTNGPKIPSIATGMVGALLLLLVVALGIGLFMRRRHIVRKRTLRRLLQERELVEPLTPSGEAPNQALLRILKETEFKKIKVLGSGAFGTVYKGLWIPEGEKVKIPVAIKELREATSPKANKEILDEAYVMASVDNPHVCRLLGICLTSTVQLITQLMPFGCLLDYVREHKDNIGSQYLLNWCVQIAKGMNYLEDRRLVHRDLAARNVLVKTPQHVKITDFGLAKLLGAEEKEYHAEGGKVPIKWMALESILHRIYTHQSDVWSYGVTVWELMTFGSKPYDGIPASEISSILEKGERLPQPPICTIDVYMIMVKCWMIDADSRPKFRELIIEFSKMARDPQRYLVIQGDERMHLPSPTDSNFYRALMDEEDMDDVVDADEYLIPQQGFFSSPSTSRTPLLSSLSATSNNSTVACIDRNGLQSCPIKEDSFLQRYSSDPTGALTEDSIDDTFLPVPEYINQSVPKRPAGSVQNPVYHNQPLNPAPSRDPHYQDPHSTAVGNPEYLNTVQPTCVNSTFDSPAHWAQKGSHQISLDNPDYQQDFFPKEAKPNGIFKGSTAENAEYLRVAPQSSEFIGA
Tyrosine-protein kinase BTK (Homo sapiens), sequence (Q06187 whole entry): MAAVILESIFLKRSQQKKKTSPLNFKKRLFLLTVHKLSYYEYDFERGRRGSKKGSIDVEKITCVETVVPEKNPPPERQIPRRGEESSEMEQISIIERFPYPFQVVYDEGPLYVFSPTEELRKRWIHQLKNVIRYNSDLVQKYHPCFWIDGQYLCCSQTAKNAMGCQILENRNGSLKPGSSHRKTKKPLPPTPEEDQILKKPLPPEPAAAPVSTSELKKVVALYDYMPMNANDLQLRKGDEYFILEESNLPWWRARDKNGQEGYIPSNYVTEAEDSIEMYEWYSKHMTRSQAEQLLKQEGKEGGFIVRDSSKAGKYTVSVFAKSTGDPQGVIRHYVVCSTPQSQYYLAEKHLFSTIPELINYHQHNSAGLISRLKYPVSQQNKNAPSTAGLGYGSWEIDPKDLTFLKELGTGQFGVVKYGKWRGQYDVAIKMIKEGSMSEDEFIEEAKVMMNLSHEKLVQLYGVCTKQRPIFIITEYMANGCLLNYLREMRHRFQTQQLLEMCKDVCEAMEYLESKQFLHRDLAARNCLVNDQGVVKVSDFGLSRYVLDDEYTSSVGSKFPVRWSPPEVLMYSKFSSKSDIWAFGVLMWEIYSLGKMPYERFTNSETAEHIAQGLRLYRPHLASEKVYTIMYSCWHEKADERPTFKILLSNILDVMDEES
Receptor tyrosine-protein kinase erbB-4 (Homo sapiens), sequence (Q15303 whole entry): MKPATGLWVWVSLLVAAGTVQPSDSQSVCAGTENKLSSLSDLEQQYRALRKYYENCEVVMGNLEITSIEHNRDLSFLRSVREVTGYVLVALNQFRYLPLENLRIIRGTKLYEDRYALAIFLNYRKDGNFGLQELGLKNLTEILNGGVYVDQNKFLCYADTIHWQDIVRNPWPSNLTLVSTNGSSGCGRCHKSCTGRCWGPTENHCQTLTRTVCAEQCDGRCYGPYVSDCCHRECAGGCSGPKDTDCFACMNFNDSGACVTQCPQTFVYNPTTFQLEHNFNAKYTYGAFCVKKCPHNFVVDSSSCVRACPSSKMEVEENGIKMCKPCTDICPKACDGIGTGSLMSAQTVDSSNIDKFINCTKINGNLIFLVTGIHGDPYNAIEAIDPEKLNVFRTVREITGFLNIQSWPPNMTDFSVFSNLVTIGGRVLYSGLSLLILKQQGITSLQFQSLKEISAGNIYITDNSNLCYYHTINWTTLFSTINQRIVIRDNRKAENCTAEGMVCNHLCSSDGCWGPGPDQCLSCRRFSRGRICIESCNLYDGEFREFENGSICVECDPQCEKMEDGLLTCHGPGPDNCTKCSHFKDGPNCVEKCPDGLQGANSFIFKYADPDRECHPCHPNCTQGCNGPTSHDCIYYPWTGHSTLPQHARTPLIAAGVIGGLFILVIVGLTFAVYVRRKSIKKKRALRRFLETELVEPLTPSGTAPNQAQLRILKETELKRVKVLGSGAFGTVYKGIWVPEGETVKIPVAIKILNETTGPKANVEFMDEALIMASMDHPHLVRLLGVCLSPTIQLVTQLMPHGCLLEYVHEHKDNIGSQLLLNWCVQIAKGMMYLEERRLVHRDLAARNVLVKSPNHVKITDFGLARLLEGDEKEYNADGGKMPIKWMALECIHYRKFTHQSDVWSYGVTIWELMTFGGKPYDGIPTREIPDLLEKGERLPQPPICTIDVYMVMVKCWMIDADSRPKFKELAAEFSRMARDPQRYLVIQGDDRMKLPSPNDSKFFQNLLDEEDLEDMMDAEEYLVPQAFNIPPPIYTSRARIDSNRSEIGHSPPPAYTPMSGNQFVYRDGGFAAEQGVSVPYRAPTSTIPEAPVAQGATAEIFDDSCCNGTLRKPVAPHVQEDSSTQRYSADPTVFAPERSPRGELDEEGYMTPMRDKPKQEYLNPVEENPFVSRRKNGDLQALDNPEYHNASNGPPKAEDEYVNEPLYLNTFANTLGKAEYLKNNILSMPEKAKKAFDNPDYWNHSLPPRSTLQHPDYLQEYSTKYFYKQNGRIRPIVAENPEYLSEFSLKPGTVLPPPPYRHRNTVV

## C=CC(=O)Nc1cc(Nc2ncc(C(=O)OC(C)C)c(-c3cn(C)c4ccccc34)n2)c(OC)cc1N(C)CCN(C)C [MOBOCERTINIB]
[1]
  inhibition: > 97%
[2]
  inhibition: > 97%
[3]
  inhibition: > 81%
[4]
  IC50: 22.5 nM
[5]
  Cmax: 82 ng/mL
[6]
  IC50: 3.3 nM
BaF3
  inhibition in vivo at 100 mg/kg: 89%
[7]
  inhibition: > 81%
[8]
  IC50: 31 nM
[9]
  inhibition: > 81%
[10]
  IC50: 11 nM
[11]
  Cmax: 143 ng/mL
